In one data set the test system is pig skin. How it is done:
Various gallate-containing drug formulations were prepared and applied to ex vivo pig skin samples. Fresh pig skin was obtained from a local butcher, processed within three hours and then frozen. For experiments, the skin was slowly thawed, excess fat removed from the base, and cut into 1×2 cm squares. These squares were mounted and clamped on Franz diffusion cells, which kept the tissue moist and isolated and exposed a 6 mm diameter of the upper skin surface for the application of a drug loaded formulation. Skin samples were then frozen and later cryosectioned in 50 μm slices. The drug in the slices was extracted and measured by HPLC or radioactive doping methods. A drug depth profile was then established for each drug.
1. Formulations containing a drug and a gallate. The drugs were dissolved in ethanol at various concentrations along with either EGCG or TA (500 mg/mL). Each solution was pipetted into 6×5 mm diameter aluminum cups (approximately 3 mm in height) by filling and allowing the ethanol to evaporate at 50° C. until all the solution was used up (80 mg per cup).
2. Formulations containing a drug, propylene glycol (“PG”) and a gallate. 300 mg of propylene glycol was mixed with 200 mg of EGCG or TA until dissolved. Various amounts of drug were added to this mixture and dissolved. 80 mg of the resulting viscous solution was weighed into 6×5 mm aluminum cups.
3. Control Formulations. Control formulations were prepared using Glaxal base and Plogel. Glaxal base is a cream used by compounding pharmacists to manufacture topical formulations of drugs. Plogel is an alternative used for dermal formulations. […] Drug was added to a known weight of Glaxal or Plogel and levigated to produce a standard drug dispersion. These formulations were prepared the evening before the experiment. For some drugs, radioactive drug (where available) was also added as a doping additive to facilitate quantitation in tissues.
Eutectics: In some cases, gallate containing compounds and drugs were formulated in eutectic mixtures. These included a 60:40 (% w/w) mixture of menthol with ibuprofen. These agents acted as a carrier for retinoic acid, which was then dissolved in this liquid. The 3-drug eutectic/solution was then blended into the CMC/poloxamer emulsion containing EGCG (2.5%). […] The emulsion was stabilized with poloxamer.
Example 29. Pig skin studies. Aluminum cups containing drug formulations were inverted on top of the pig skin in the Franz diffusion cell so that the formulation contents were in contact with the skin. […]
Analysis. […] The amount of drug in each group of skin sections was then determined using HPLC methods, or by radioactivity counting on a liquid scintillation counter. The amount of drug in each group of skin sections was expressed as μg/g or mg/g of tissue.

The nature of data set [1]: Drug release from injectable PG:gallate pastes (60:40) into PBS. The following applies: 60:40 PG:EGCG or PG:tannic acid, 2% w/w drug, PBS pH 7.4, 37° C. In kind it is physicochemical. As for the experimental part: Methods: 60:40% w/w PG:EGCG or PG:tannic acid was used in these studies. 588 mg of propylene glycol was weighed into a 20 mL glass vials and 392 of EGCG or tannic acid was added followed by vortexing to distribute and dissolve the gallates. The vials were warmed to 60° C. and vortexed until all the contents were in solution. At this time 20 mg of drug was added (2% w/w) and vortexed until in solution. The following drugs were used: paclitaxel, docetaxel, retinoic acid, amphotericin B, and curcumin. 100 mg of each paste was weighed into the base of a 15 mL glass test tube and 10 mL of phosphate buffered saline was added at pH 7.4 and the tubes were incubated at 37° C. for certain times. All 10 mL of the PBS release media was removed and 1 mL analyzed by HPLC for drug content. 10 mL of fresh PBS was then added to all tubes

The test system of data set [2] is pig bladder tissue. In words: Uptake of docetaxel or paclitaxel into pig bladder tissue from EGCG or tannic acid solutions (Franz cells). In kind it is in vitro ADME. Particulars: drug 200 microg/ml in EGCG or tannic acid at 50 mg/ml, urothelial side, 2 hours. As for the experimental part: Methods: Fresh ex vivo pig bladders were cut into 2 cm diameter pieces and laid on franz diffusions cells. […] The solutions were then made up in tyrodes buffer pH 7.4 and 400 ul was placed on the urothelial side of the tissue for 2 hours. The tissues were then frozen and cryosectioned for radioactivity counting by liquid scintillation methods.

Data set [3] concerns pig bladder tissue. In words: Uptake of paclitaxel or docetaxel into pig bladder tissue from triblock or diblock copolymer-MEPEG pastes. Particulars: EGCG or tannic acid loaded triblock copolymer paste, perivesicular side, 2 hours. The class given is in vitro ADME. The source says: Methods: Fresh ex vivo pigs bladders were cut into 2 cm diameter pieces and laid on franz diffusions cells. […] The synthesis of the diblock copolymer is described in example X and is composed of a MEPEG molecule of 2000 molecular weight with polylactic acid at a molecular weight of 1330. The triblock copolymer was synthesized in house and has a composition of 35/35/30 (polycaprolactone, polylactic acid, polyethylene glycol with a total molecular weight of 4600. The triblock was synthesized by heating a mixture of caprolactone (Sigma chemicals) lactic acid (Polysciences) and Polyethylene glycol (Sigma molecular weight 1380) to 120° C. under nitrogen overnight followed by cooling and washing in hexane or cold ethanol. 100 mg of paste was applied to the perivascular side of the bladder tissue and 200 ul of tyrodes buffer pH 7.4 was added. The tissue was incubated for 2 hours at 37° C. and then the diffusion cell was disassembled, the tissue was washed free of remaining paste with excess tyrodes and the tissues were then frozen and cryosectioned for radioactivity counting by liquid scintillation methods.

Data set [4] relates to pig bladder tissue. In words: Uptake of paclitaxel into pig bladder tissue from methoxypolyethylene glycol pastes with EGCG or tannic acid. The class given is in vitro ADME. Particulars: MEPEG paste with EGCG or tannic acid, 5% drug, urothelial or perivascular side, 2 hours. As for the experimental part: Methods: Fresh ex vivo pig bladders were cut into 2 cm diameter pieces and laid on franz diffusions cells. […] 100 mg of paste was applied to either the perivascular or urothelial side of the bladder tissue and 200 ul of tyrodes buffer pH 7.4 was added. The tissue was incubated for 2 hours at 37° C. and then the diffusion cell was disassembled, the tissue was washed free of remaining paste with excess tyrodes and the tissues were then frozen and cryosectioned for radioactivity counting by liquid scintillation methods.

In the case of `CC(=O)O[C@@]12CO[C@@H]1C[C@H](O)[C@@]1(C)C(=O)[C@H](O)C3=C(C)[C@@H](OC(=O)[C@H](O)[C@@H](NC(=O)OC(C)(C)C)c4ccccc4)C[C@@](O)([C@@H](OC(=O)c4ccccc4)[C@H]21)C3(C)C` [docetaxel], the “drug uptake by pig skin relative to controls” value with pig skin was “higher levels of uptake as compared to the control formulations”. Further, the “drug release from PG:gallate paste” value in data set [1] was “relatively controlled release of the drug over 24 hours”. In addition, the “drug penetration through bladder tissue” value with pig bladder tissue [2] was “high levels of drug penetration”. The “penetration into the bladder tissue” value with pig bladder tissue [3] is “allowed for the penetration”.

Take `CC(=O)O[C@H]1C(=O)[C@@]2(C)[C@H]([C@H](OC(=O)c3ccccc3)[C@]3(O)C[C@H](OC(=O)[C@H](O)[C@@H](NC(=O)c4ccccc4)c4ccccc4)C(C)=C1C3(C)C)[C@]1(OC(C)=O)CO[C@@H]1C[C@@H]2O` [paclitaxel]: the “drug uptake by pig skin” value in the data set with pig skin is “low levels of drug uptake”. In data set [1], the “drug release from PG:gallate paste” value was “relatively controlled release of the drug over 24 hours”. In the data set with pig bladder tissue [4], the “penetration of paclitaxel into the bladder tissue” value was “allowed for the penetration”. Also, the “drug penetration through bladder tissue” value in the data set on pig bladder tissue [2] is given as “high levels of drug penetration”. In addition, the “penetration into the bladder tissue” value with pig bladder tissue [3] is recorded as “allowed for the penetration”.

For the origin of these results see patent publication US11707557B2, “Compositions and devices incorporating water-insoluble therapeutic agents and methods of the use thereof” (COOK MEDICAL TECHNOLOGIES LLC, priority 2014, dated 2023).
